# Data: patent US9085576B2 (AMGEN INC., priority 2013, dated 2015)
# Structures can show the parent of a compound that is named as a salt. Where two headings read alike, the source gives them in different places.
# How the values were obtained:
# [1] = biological target: Cathepsin D (Cat D) (Homo sapiens (Human), UniProt P07339); assay: In vitro enzymatic Cathepsin D (Cat D) FRET assay; format: biochemical
# [2] = biological target: Beta Secretase enzyme (BACE) (Homo sapiens (Human), UniProt P56817); assay: In vitro enzymatic BACE FRET assay; format: biochemical
# [3] = biological target: BACE (Homo sapiens (Human), UniProt P56817); assay: In vitro BACE cell-based assay (Aβ40 in conditioned medium, sandwich ELISA)
# [4] = read-out: BACE1 Enzyme assay IC50
# Sequence of Cathepsin D (Cat D) (P07339 65-412, species assumed): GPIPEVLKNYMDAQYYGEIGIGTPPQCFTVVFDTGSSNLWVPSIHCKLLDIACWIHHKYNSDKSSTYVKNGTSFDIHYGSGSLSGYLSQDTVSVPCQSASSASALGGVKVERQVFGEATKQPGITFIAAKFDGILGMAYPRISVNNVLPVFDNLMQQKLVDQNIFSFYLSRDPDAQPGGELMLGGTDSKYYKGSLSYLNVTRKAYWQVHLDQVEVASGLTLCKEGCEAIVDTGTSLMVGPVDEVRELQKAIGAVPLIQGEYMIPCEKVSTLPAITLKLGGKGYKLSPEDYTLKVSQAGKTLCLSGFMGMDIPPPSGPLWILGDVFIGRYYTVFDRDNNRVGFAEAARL
# Sequence of BACE (P56817 46-501, species assumed): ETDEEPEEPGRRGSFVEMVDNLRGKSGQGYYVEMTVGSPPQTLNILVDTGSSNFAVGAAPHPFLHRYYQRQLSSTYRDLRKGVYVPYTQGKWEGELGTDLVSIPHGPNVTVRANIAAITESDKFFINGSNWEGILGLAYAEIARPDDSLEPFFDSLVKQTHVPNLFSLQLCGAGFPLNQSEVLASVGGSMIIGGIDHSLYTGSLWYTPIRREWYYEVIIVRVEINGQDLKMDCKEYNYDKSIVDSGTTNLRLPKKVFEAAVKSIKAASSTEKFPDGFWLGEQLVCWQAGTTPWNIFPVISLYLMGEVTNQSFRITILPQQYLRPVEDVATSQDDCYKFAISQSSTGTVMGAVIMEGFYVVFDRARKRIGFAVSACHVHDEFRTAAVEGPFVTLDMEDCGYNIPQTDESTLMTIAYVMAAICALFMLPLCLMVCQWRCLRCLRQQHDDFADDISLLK
# Sequence of Beta Secretase enzyme (BACE) (P56817 46-501): as the sequence (P56817 46-501, species assumed) above
Compound,IC50 ([1]; read-out: CatD IC50) [µM],"IC50 [2, 4] [µM]",IC50 [3] [µM],IC50 [1] [µM],IC50 [2] [µM]
"C[C@H](F)c1nc(C(=O)Nc2ccc(F)c([C@@]3(C(F)F)N=C(N)O[C@@H]4C[C@@H]43)c2)co1 (mixture of isomers) [Example 175, N-(3-((1R,5S,6R)-3-amino-5-(difluoromethyl)-2-oxa-4-azabicyclo[4.1.0]hept-3-en-5-yl)-4-fluorophenyl)-2-(1-fluoroethyl)oxazole-4-carboxamide 2,2,2-trifluoroacetate]",1340,2.88,2.48,,
"NC1=N[C@@](c2cc(NC(=O)[C@H]3CCCO3)ccc2F)(C(F)F)[C@H]2C[C@H]2O1 (mixture of isomers) [Example 244, (S,R)-N-(3-((1R,5S,6R)-3-amino-5-(difluoromethyl)-2-oxa-4-azabicyclo[4.1.0]hept-3-en-5-yl)-4-fluorophenyl) tetrahydrofuran-2-carboxamide]",319,5.37,1.98,,
"C[C@H](C(=O)Nc1ccc(F)c([C@@]2(C(F)F)N=C(N)O[C@@H]3C[C@@H]32)c1)c1ccc(Cl)cc1 (mixture of isomers) [Example 252, N-(3-((1R,5S,6R)-3-amino-5-(difluoromethyl)-2-oxa-4-azabicyclo[4.1.0]hept-3-en-5-yl)-4-fluorophenyl)-2-(4-chlorophenyl) propanamide]",270,> 40,> 15.6,,
"NC1=N[C@@](c2cc(NC(=O)[C@@H]3CCOC3)ccc2F)(C(F)F)[C@H]2C[C@H]2O1 (mixture of isomers) [Example 253, (R,S)-N-(3-((1R,5S,6R)-3-amino-5-(difluoromethyl)-2-oxa-4-azabicyclo[4.1.0]hept-3-en-5-yl)-4-fluorophenyl) tetrahydrofuran-3-carboxamide]",188,34.3,> 15.6,,
"NC1=N[C@](c2cc(NC(=O)c3ccc(Cl)cn3)ccc2F)(C(F)F)[C@@H]2C[C@@H]2O1 (racemic) [Example 55, N-(3-([1(R,S),5(S,R),6(R,S)]-3-amino-5-(difluoromethyl)-2-oxa-4-azabicyclo[4.1.0]hept-3-en-5-yl)-4-fluorophenyl)-5-chloropicolinamide]",860,0.0362,0.0431,,
"NC1=N[C@](CF)(c2cc(NC(=O)c3ccc(Cl)cn3)cc(F)c2F)[C@H]2C[C@H]2O1 [Example 142, N-(3-(((1R,S),(5S,R),(6R,S))-3-amino-5-(fluoromethyl)-2-oxa-4-azabicyclo[4.1.0]hept-3-en-5-yl)-4,5-difluorophenyl)-5-chloropicolinamide]",,,0.0263,,
"Cc1cc(C(F)F)cnc1C(=O)Nc1ccc(F)c([C@@]2(CF)N=C(N)O[C@@H]3C[C@@H]32)c1 [Example 201, N-(3-((1R,5S,6R)-3-amino-5-(fluoromethyl)-2-oxa-4-azabicyclo[4.1.0]hept-3-en-5-yl)-4-fluorophenyl)-5-(difluoromethyl)-3-methylpicolinamide]",,0.0638,0.0179,,
Cc1cc(OC(F)F)cnc1C(=O)Nc1ccc(Cl)c(C2(C(F)F)N=C(N)O[C@@H]3C[C@@H]32)c1 (stereo partly drawn) [Example 209],,0.0908,0.0765,,
"N#Cc1cnc2c(Nc3ccc(Cl)c([C@]4(C(F)F)N=C(N)O[C@H]5C[C@H]54)c3)ncc(F)c2c1 [Example 351, 8-((3-((1S,5R,6S)-3-amino-5-(difluoromethyl)-2-oxa-4-azabicyclo[4.1.0]hept-3-en-5-yl)-4-chlorophenyl)amino)-5-fluoro-1,7-naphthyridine-3-carbonitrile]",> 14.8,2.81,,,
"NC1=N[C@@](c2cc(Nc3coc4cc(Cl)cnc34)ccc2F)(C(F)F)[C@H]2C[C@H]2O1 [Example 385, N-(3-((1R,5S,6R)-3-amino-5-(difluoromethyl)-2-oxa-4-azabicyclo[4.1.0]hept-3-en-5-yl)-4-fluorophenyl)-6-chlorofuro[3,2-b]pyridin-3-amine]",,,,153,0.253
"CC#Cc1cncc(-c2cc([C@]3(CF)N=C(N)O[C@H]4C[C@H]43)c(F)cc2CO)c1 [Example 432, (4-(((1S,R),(5R,S),(6S,R))-3-amino-5-(fluoromethyl)-2-oxa-4-azabicyclo[4.1.0]hept-3-en-5-yl)-5-fluoro-2-(5-(prop-1-yn-1-yl)pyridin-3-yl)phenyl)methanol]",178,33.1,,,
"(R)-8-((3-((1R,5S,6R)-3-amino-5-(difluoromethyl)-2-oxa-4-azabicyclo[4.1.0]hept-3-en-5-yl)-4-fluorophenyl)amino)-5,6,7,8-tetrahydroquinoline-3-carbonitrile and (S)-8-((3-((1R,5S,6R)-3-amino-5-(difluoromethyl)-2-oxa-4-azabicyclo[4.1.0]hept-3-en-5-yl)-4-fluorophenyl)amino)-5,6,7,8-tetrahydroquinoline-3-carbonitrile [Example 403]",469,2.85,,,
"N-(3-((1R,5S,6R)-3- amino-5- (difluoromethyl)-2-oxa- 4-azabicyclo[4.1.0]hept- 3-en-5-yl)-4-fluoro-5- methylphenyl)-4-chloro- 2-(fluoromethyl) benzamide [Example 444]",171,0.0105,,,

# Further lines, with some results ahead:
IC50 ([1]; read-out: CatD IC50) [µM],"IC50 [2, 4] [µM]",IC50 [3] [µM],Compound,IC50 [1] [µM],IC50 [2] [µM]
377,1.84,2.54,"CO[C@H](C)C(=O)Nc1ccc(F)c([C@@]2(C(F)F)N=C(N)O[C@@H]3C[C@@H]32)c1 (mixture of isomers) [Example 257, (R,S)-N-(3-((1R,5S,6R)-3-amino-5-(difluoromethyl)-2-oxa-4-azabicyclo[4.1.0]hept-3-en-5-yl)-4-fluorophenyl)-2-methoxypropanamide]",,
668,0.659,0.473,C[C@H](C#N)Oc1ccc(C(=O)Nc2ccc(F)c([C@@]3(C(F)F)N=C(N)O[C@@H]4C[C@@H]43)c2)nc1 (mixture of isomers) [Example 259],,
77.4,13.8,2.13,"C[C@@H](Nc1ccc(F)c([C@@]2(C(F)F)N=C(N)O[C@@H]3C[C@@H]32)c1)c1ccc(Cl)cn1 (mixture of isomers) [Example 378, (1R,5S,6R)-5-(5-(((R)-1-(5-chloropyridin-2-yl)ethyl)amino)-2-fluorophenyl)-5-(difluoromethyl)-2-oxa-4-azabicyclo[4.1.0]hept-3-en-3-amine and (1R,5S,6R)-5-(5-(((S)-1-(5-chloropyridin-2-yl)ethyl)amino)-2-fluorophenyl)-5-(difluoromethyl)-2-oxa-4-azabicyclo[4.1.0]hept-3-en-3-amine]",,
> 400,0.145,0.865,NC1=N[C@@](c2cc(NC(=O)c3cnc(OCC4CCOC4)cn3)ccc2F)(C(F)F)[C@H]2C[C@H]2O1 (mixture of isomers) [Example 413],,
,0.976,0.318,"N#Cc1cnc2c(c1)CC[C@@H]2Nc1ccc(F)c([C@@]2(C(F)F)N=C(N)O[C@@H]3C[C@@H]32)c1 (single isomer, unassigned) [Example 402]",,
,0.183,0.0074,"COc1cc(Cl)cnc1C(=O)Nc1ccc(Cl)c([C@@]2(CF)N=C(N)O[C@@H]3C[C@@H]32)c1 [Example 297, N-(3-((1R,5S,6R)-3-amino-5-(fluoromethyl)-2-oxa-4-azabicyclo[4.1.0]hept-3-en-5-yl)-4-chlorophenyl)-5-chloro-3-methoxypicolinamide]",,
,1.99,0.184,"COc1cnc(C(=O)Nc2ccc(F)c([C@@]3(C)N=C(N)O[C@@H]4C[C@@H]43)n2)cn1 [Example 322, N-(6-((1R,5S,6R)-3-amino-5-methyl-2-oxa-4-azabicyclo[4.1.0]hept-3-en-5-yl)-5-fluoropyridin-2-yl)-5-methoxypyrazine-2-carboxamide]",,
,0.108,0.0575,"N#Cc1cnc2c(c1)CC[C@H]2Nc1ccc(F)c([C@@]2(C(F)F)N=C(N)O[C@@H]3C[C@@H]32)c1 [Example 401, (R)-7-((3-((1R,5S,6R)-3-amino-5-(difluoromethyl)-2-oxa-4-azabicyclo[4.1.0]hept-3-en-5-yl)-4-fluorophenyl)amino)-6,7-dihydro-5H-cyclopenta[b]pyridine-3-carbonitrile]",,
240,0.613,,"NC1=N[C@](c2cc(-c3nc4ccc(Cl)cc4o3)ccc2F)(C(F)F)[C@@H]2C[C@@H]2O1 [Example 425, (1S,5R,6S)-5-(5-(6-chlorobenzo[d]oxazol-2-yl)-2-fluorophenyl)-5-(difluoromethyl)-2-oxa-4-azabicyclo[4.1.0]hept-3-en-3-amine]",,
196,1.24,,"NC1=N[C@@](c2cc(-c3nc4ccc(Cl)cc4o3)ccc2F)(C(F)F)[C@H]2C[C@H]2O1 [Example 426, (1R,5S,6R)-5-(5-(6-chlorobenzo[d]oxazol-2-yl)-2-fluorophenyl)-5-(difluoromethyl)-2-oxa-4-azabicyclo[4.1.0]hept-3-en-3-amine]",,
91.6,4.69,,"CC#Cc1cncc(-c2ccc(F)c([C@@]3(CF)N=C(N)O[C@@H]4C[C@@H]43)c2)c1 [Example 431, (1(S,R),5(R,S),6(S,R))-5-(2-fluoro-5-(5-(prop-1-yn-1-yl)pyridin-3-yl)phenyl)-5-(fluoromethyl)-2-oxa-4-azabicyclo[4.1.0]hept-3-en-3-amine]",,
316,8.62,,NC1=N[C@@](c2cc(-n3cc(C#CC4CC4)cn3)ccc2F)(C(F)F)[C@H]2C[C@H]2O1 [Example 435],,
490,0.473,,"CNc1cnc(C(=O)Nc2ccc(F)c([C@@]3(C(F)F)N=C(N)O[C@@H]4C[C@@H]43)c2)nc1 [Example 439, N-(3-((1R,5S,6R)-3-amino-5-(difluoromethyl)-2-oxa-4-azabicyclo[4.1.0]hept-3-en-5-yl)-4-fluorophenyl)-5-(methylamino)pyrimidine-2-carboxamide dihydrochloride]",,
